Patent US20240294499A1, “TARGETED PROTEIN DEGRADATION USING BIFUNCTIONAL COMPOUNDS THAT BIND UBIQUITIN LIGASE AND TARGET MCL-1 PROTEIN” (Captor Therapeutics S.A., priority 2021, published 2024)

Assays:
Format in all cases: cell-based
OPM-2 cells = experiment: Cell viability assay (CellTiter-Glo), OPM-2; details: Homo sapiens, 24 hours incubation, 1% FBS, read-out: Average pIC50 by molecule OPM-2 (converted)
Procedure, shortened: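 OPM-2, MV-4-11 and ARH-77 cells were grown in medium with 1% FBS and treated with compound in 1/3 dilutions from 30 uM (9–12 points, 0.5% DMSO). Viability was read by CellTiter-Glo luminescence after 24 hours and normalized to DMSO control.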

MCL-1 protein = MCL-1 protein (Homo sapiens, UniProt Q07820); experiment: OPM-2 cells: MCL-1 protein degradation, Simple Western; parameters: endogenous in cells; host or cells: OPM-2; details: OPM-2 cell line, 6 h treatment, 100 nM compound, vs DMSO
Procedure, shortened: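 OPM-2 cells in RPMI-1640 with 1% FBS treated with compounds (0.5% DMSO) for 6 h at 100 nM. Lysates analysed by automated capillary Simple Western with MCL-1 D35A5 antibody; % MCL-1 reduction versus DMSO-treated cells (0%).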

MV-4-11 cells = experiment: Mitochondrial potential changes in cancer cells, flow cytometry (TMRE); details: 5 hours
Procedure: The effect of compounds 220 and 268 of the invention in MV-4-11 cells was investigated using the following protocol.
MV-4-11 cells were seeded on 384-well plates (0.05 ml) in growth medium containing 1% FBS and 50 nM tetramethylrhodamine ethyl ester (TMRE). Immediately after seeding, compounds in appropriate concentrations were added directly to the cell culture medium. After 5 hours incubation, cells were analyzed by flow cytometry (LSR Fortessa X-20; BD Biosciences). Results were evaluated using FlowJo (V10) software.
FIG. 7 presents the effect of the compound in the mitochondrial potential of MV-4-11 cells treated with 220 for 5 hours. Compound concentration is specified in the top-left corner of each histogram; Dimethyl sulfoxide (DMSO) was used as vehicle control. Population of interest and the percentage of cells included are highlighted with a red bar and shown in bold red ink, respectively.
FIG. 8 presents the concentration dependent decrease (compared to DMSO control) of the population of cells with normal polarized mitochondria after treatment of MV-4-11 cells with the compounds 220 and 268 for 5 hours.

DMS 114 cells = experiment: Cell viability assay (CellTiter-Glo), DMS 114; details: 72 hours incubation, 10% FBS
Procedure, shortened: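 Small-cell lung cancer cells, seeded at 3000 cells/well in medium with 10% FBS, were dosed the next day with 1/3 serial dilutions from 30 uM (9 to 12 points). After 72 hours, viability was read by CellTiter-Glo luminescence.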

Sequence of MCL-1 protein (Q07820 whole entry): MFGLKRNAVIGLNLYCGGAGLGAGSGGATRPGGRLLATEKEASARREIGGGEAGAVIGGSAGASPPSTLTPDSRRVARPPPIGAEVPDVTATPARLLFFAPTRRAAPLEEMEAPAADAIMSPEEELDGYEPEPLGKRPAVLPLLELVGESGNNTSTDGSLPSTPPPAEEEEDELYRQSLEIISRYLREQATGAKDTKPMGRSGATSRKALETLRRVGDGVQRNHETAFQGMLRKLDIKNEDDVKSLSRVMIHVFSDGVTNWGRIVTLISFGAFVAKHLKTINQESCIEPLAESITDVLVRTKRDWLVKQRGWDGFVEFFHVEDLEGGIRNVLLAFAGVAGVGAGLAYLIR

| Compound | IC50 (OPM-2 cells) [µM] | Simple Western, % of protein reduction (MCL-1 protein) [%] | mitochondrial potential (population of cells with normal polarized mitochondria) (MV-4-11 cells) | other results |
| --- | --- | --- | --- | --- |
| Cc1nn(C)c(C)c1-c1c(F)ccc2c(CCCOc3cccc4cc(F)ccc34)c(C(=O)O)n(CCN3CCN(C(=O)COc4cccc5c4C(=O)N(C4CCC(=O)NC4=O)C5=O)CC3)c12 (centres unmarked) [Compound 215, 1-{2-[4-(2-{[2-(2,6-dioxopiperidin-3-yl)-1,3-dioxo-2,3-dihydro-1H-isoindol-4-yl]oxy}acetyl)piperazin-1-yl]ethyl}-6-fluoro-3-{3-[(6-fluoronaphthalen-1-yl)oxy]propyl}-7-(1,3,5-trimethyl-1H-pyrazol-4-yl)-1H-indole-2-carboxylic acid] | ≤ 1 | ≥20 | – | – |
| Cc1nn(C)c(C)c1-c1c(Cl)ccc2c(CCCOc3cccc4cc(F)ccc34)c(C(=O)O)n(CCN3CCN(C(=O)Cn4c(C)nc5c(C(=O)NC6CCC(=O)NC6=O)cccc54)CC3)c12 (centres unmarked) [Compound 268, 6-chloro-1-{2-[4-(2-{4-[(2,6-dioxopiperidin-3-yl)carbamoyl]-2-methyl-1H-1,3-benzodiazol-1-yl}acetyl)piperazin-1-yl]ethyl}-3-{3-[(6-fluoronaphthalen-1-yl)oxy]propyl}-7-(1,3,5-trimethyl-1H-pyrazol-4-yl)-1H-indole-2-carboxylic acid] | – | – | concentration dependent depolarization of mitochondria | – |
| Cc1nn2c(c1-c1c(Cl)ccc3c(CCCOc4cccc5cc(F)ccc45)c(C(=O)O)n(CCN4CCN(C(=O)COc5cccc6c5CN(C5CCC(=O)NC5=O)C6=O)CC4)c13)COCC2 (centres unmarked) [Compound 346, 6-Chloro-1-(2-(4-(2-((2-(2,6-dioxopiperidin-3-yl)-1-oxoisoindolin-4-yl)oxy)acetyl)piperazin-1-yl)ethyl)-3-(3-((6-fluoronaphthalen-1-yl)oxy)propyl)-7-(2-methyl-6,7-dihydro-4H-pyrazolo[5,1-c][1,4]oxazin-3-yl)-1H-indole-2-carboxylic acid] | – | – | – | IC50 (DMS 114 cells; Homo sapiens, DMS-114, 72 h, read-out: Average pIC50 by molecule DMS 114 (converted)): ≤ 3.16 µM |
| Cc1nn(C)c(C)c1-c1c(Cl)ccc2c(CCCOc3cccc4ccccc34)c(C(=O)O)n(CCN3CCN(C(=O)COc4cccc5c4C(=O)N(C4CCC(=O)NC4=O)C5=O)CC3)c12 (centres unmarked) [Compound 204, 6-chloro-1-(2-(4-(2-((2-(2,6-dioxopiperidin-3-yl)-1,3-dioxoisoindolin-4-yl)oxy)acetyl)piperazin-1-yl)ethyl)-3-(3-(naphthalen-1-yloxy)propyl)-7-(1,3,5-trimethyl-1H-pyrazol-4-yl)-1H-indole-2-carboxylic acid] | ≤ 1 | ≥40 | – | – |
| Cc1nn(C)c(C)c1-c1c(Cl)ccc2c(CCCOc3cccc4cc(F)ccc34)c(C(=O)O)n(CCN3CCN(C(=O)COc4cccc5c4CN(C4CCC(=O)NC4=O)C5=O)CC3)c12 (centres unmarked) [Compound 220, 6-chloro-1-{2-[4-(2-{[2-(2,6-dioxopiperidin-3-yl)-1-oxo-2,3-dihydro-1H-isoindol-4-yl]oxy}acetyl)piperazin-1-yl]ethyl}-3-{3-[(6-fluoronaphthalen-1-yl)oxy]propyl}-7-(1,3,5-trimethyl-1H-pyrazol-4-yl)-1H-indole-2-carboxylic acid] | – | – | concentration dependent depolarization of mitochondria | Average pIC50 by molecule DMS 114 (DMS 114 cells): ≥6.5 |
